The structures appear in SMILES notation.

Melting point and IC50 data for 20 compounds are collected here from patent US20040138160A1, “Preventive/therapeutic method for cancer” (priority 2001, published 2004).

The target of one data set is HER2 (Homo sapiens, UniProt P04626). Description: Suppression of receptor tyrosine-phosphorylation in human breast cancer cells (intracellular HER2 phosphorylation, MCF-7, heregulin stimulation). Also on record: endogenous in cells; host or cells: MCF-7. The conditions noted are these: MCF-7 cells; test compound 2 hours, then heregulin 0.8 μg/ml 5 minutes; read-out: Intracellular HER2 phosphorylation inhibition MCF-7 (IC50:μM). It is filed as cell-based.
Chain of HER2 (P04626 23-1255): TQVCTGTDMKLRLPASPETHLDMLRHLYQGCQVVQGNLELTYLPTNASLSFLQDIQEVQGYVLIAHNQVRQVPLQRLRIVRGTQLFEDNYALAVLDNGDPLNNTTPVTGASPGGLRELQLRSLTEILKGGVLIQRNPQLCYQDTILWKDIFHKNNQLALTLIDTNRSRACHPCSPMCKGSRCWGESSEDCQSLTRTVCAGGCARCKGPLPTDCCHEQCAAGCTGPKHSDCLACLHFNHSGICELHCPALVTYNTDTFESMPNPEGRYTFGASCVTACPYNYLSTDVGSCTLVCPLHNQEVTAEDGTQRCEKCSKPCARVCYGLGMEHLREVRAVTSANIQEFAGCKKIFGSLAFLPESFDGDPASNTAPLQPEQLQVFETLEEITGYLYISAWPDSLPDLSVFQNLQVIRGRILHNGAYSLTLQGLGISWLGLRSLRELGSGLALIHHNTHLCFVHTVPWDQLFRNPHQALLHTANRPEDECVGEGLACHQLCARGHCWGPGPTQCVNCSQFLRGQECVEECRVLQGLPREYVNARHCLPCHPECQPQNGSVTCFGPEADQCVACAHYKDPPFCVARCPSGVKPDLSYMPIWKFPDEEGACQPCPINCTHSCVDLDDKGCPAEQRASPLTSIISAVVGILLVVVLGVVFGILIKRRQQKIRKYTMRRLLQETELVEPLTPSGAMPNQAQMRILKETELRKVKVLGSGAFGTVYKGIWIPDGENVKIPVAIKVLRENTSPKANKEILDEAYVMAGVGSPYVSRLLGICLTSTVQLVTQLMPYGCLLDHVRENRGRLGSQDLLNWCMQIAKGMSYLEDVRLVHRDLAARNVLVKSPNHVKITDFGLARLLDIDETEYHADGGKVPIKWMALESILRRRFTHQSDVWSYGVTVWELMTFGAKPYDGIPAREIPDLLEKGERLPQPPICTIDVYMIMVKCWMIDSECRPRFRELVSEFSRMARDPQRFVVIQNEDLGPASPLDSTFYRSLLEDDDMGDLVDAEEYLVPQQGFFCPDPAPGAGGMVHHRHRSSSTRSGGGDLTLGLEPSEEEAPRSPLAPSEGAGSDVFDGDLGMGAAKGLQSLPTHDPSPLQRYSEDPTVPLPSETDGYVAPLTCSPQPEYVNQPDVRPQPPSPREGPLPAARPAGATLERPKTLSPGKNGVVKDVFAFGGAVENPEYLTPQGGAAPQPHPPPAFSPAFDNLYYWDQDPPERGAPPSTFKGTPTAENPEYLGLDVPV

Data set [1] concerns human breast cancer cell line BT-474. Description: Inhibitory action on breast cancer cell line BT-474 proliferation in vitro (SRB). It is filed as cell-based. The conditions noted are these: heregulin 0.04 μg/ml, cultured 5 days, read-out: Inhibition of cell proliferation BT-474 (IC50:μM). Here is the method:
Cell suspension of human breast cancer cell line BT-474 (100 μl) suspended at 1,000 cells/100 μl), was placed in a 96-well microwell plate and cultured at 37° C. in a 5% carbon dioxide gas incubator. On the following day, 100 μl of a solution of each test compound, previously diluted 2-fold with a heregulin solution prepared to a final concentration of 0.04 μg/ml, was added, and the cells were cultured for 5 days. After the culture medium containing the test compound was removed, the cells were washed and fixed with 5% trichloroacetic acid, after which a 0.4% (w/v) SRB solution (dissolved in 1% acetic acid) was added to fix and stain the cells (Skehan et al., Journal of the National Cancer Institute, Vol. 82, pp. 1107-1112, 1990). After the pigment solution was removed and the plate was washed with a 1% acetic acid solution, 100 μl of an extractant (10 mM Tris buffer solution) was added to extract and dissolve the pigment; absorbance was measured at an absorption wavelength of 550 nm to quantify the amount of cells as protein content. Taking as 100% the absorbance for the control group, which received no test compound solution, the ratio of the absorbance for each treatment group was determined, and the compound concentration required to achieve 50% suppression of the residual cell content relative to the control (IC50 value) was calculated.

Protocol for HER2: Cell suspension of Human breast cancer cell line MCF-7 (500 μl), suspended at 300,000 cells/0.5 mL, was placed in a 24-well plate and cultured at 37° C. in a 5% carbon dioxide gas incubator. On the following day, 250 μl of a solution of 4-fold serially diluted test compound was added. After 2 hours, 250 μl of a heregulin solution, prepared to a final concentration of 0.8 μg/ml, was added. After 5 minutes, a buffer solution for lysis of extract solution was added to stop the reaction and to extract and yield a cell-lysate protein. After this cell-lysate protein was subjected to SDS-polyacrylamide gel electrophoresis to separate the protein, the protein in the gel was blotted onto a nylon filter. This filter was reacted with an anti-phosphotyrosine specific antibody; the portion containing phosphotyrosine on the filter was luminated using the ECL method to photosensitize an X-ray film. The amount of the film photosensitization was determined using an image analyzer.

The melting point is the temperature of the solid-liquid transition. Take `OCC(O)Cc1nccn1CCCCc1ccc(OCc2coc(/C=C/c3ccc(C(F)(F)F)cc3)n2)cc1` (stereo not drawn) [Compound B24, 3-[1-(4-(4-[(2-{(E)-2-[4-(trifluoromethyl)phenyl]ethenyl}-1,3-oxazol-4-yl)methoxy]phenyl]butyl)-1H-imidazol-2-yl]-1,2-propanediol]: the melting point fell in the range of 142 to 143 °C.

On to `FC(F)(F)c1ccc(/C=C/c2nc(COc3ccc(CCCn4ccnn4)cc3)co2)cc1` [Compound B5, 1-(3-{4-[(2-((E)-2-[4-(trifluoromethyl)phenyl]ethenyl)-1,3-oxazol-4-yl)methoxy]phenyl}propyl)-1H-1,2,3-triazole], for which the melting point was in the range of 157 to 158 °C.

`Cc1ccccc1/C=C/c1nc(COc2ccc(CCCCn3ccnc3CCO)cc2)co1` [Compound B12, 2-[1-[4-[4-[[2-[(E)-2-(2-methylphenyl)ethenyl]-1,3-oxazol-4-yl]methoxy]phenyl]butyl]-1H-imidazol-2-yl]-1-ethanol]: the melting point lay within 91 to 93 °C.

In turn, `OCC(O)Cc1nccn1CCCCc1ccc(OCc2coc(/C=C/c3ccc(F)cc3)n2)cc1` (stereo not drawn) [Compound B23, 3-(1-{4-[4-({2-[(E)-2-(4-fluorophenyl)ethenyl]-1,3-oxazol-4-yl}methoxy)phenyl]butyl}-1H-imidazol-2-yl)-1,2-propanediol] returned a melting point of 114 to 116 °C.

As to `Cc1ccc(/C=C/c2nc(COc3ccc(CCCCn4ccnc4CCO)cc3)co2)cc1` [Compound B10, 2-[1-[4-[4-[[2-[(E)-2-(4-methylphenyl)ethenyl]-1,3-oxazol-4-yl]methoxy]phenyl]butyl]-1H-imidazol-2-yl]-1-ethanol], the melting point lay in the range of 108 to 109 °C.

For the compound `OCCc1nccn1CCCCc1ccc(OCc2coc(/C=C/c3ccc(Cl)cc3)n2)cc1` [Compound B15, 2-[1-[4-[4-[[2-[(E)-2-(4-chlorophenyl)ethenyl]-1,3-oxazol-4-yl]methoxy]phenyl]butyl]-1H-imidazol-2-yl]-1-ethanol], the melting point was in the range of 127 to 128 °C.

As to `Cc1cccc(/C=C/c2nc(COc3ccc(CCCCc4c[nH]c(CC(O)CO)n4)cc3)co2)c1` (stereo not drawn) [Compound B22, 3-(4-{4-[4-({2-[(E)-2-(3-methylphenyl)ethenyl]-1,3-oxazol-4-yl}methoxy)phenyl]butyl}-1H-imidazol-2-yl)-1,2-propanediol], the figures for the IC50 (on HER2; in data set [1]) were 1.9 µM and less than 0.05 µM, respectively.

With `OCC(O)Cc1nccn1CCCc1cccc(OCc2coc(/C=C/c3ccc(C(F)(F)F)cc3)n2)c1` (stereo not drawn) [Compound B25, 3-[1-(3-{3-[(2-{(E)-2-[4-(trifluoromethyl)phenyl]ethenyl}-1,3-oxazol-4-yl)methoxy]phenyl}propyl)-1H-imidazol-2-yl]-1,2-propanediol], the melting point was in the range of 102 to 104 °C.

Turning to `OCC(O)Cc1nccn1CCCc1cccc(OCc2coc(/C=C/c3ccc(F)cc3F)n2)c1` (stereo not drawn) [Compound B27, 3-(1-{3-[3-({2-[(E)-2-(2,4-difluorophenyl)ethenyl]-1,3-oxazol-4-yl}methoxy)phenyl]propyl}-1H-imidazol-2-yl)-1,2-propanediol], the melting point lay in the range of 92 to 94 °C.

Take `OCCc1nccn1CCCCc1ccc(OCc2coc(/C=C/c3ccc(Br)cc3)n2)cc1` [Compound B16, 2-[1-[4-[4-[[2-[(E)-2-(4-bromophenyl)ethenyl]-1,3-oxazol-4-yl]methoxy]phenyl]butyl]-1H-imidazol-2-yl]-1-ethanol]: the melting point was in the range of 149 to 150 °C.

The compound `Fc1ccc(/C=C/c2nc(COc3cccc(CCCn4ccnn4)c3)co2)c(F)c1` [Compound B8, 1-{3-[3-({2-[(E)-2-(2,4-difluorophenyl)ethenyl]-1,3-oxazol-4-yl}methoxy)phenyl]propyl}-1H-1,2,3-triazole] showed a melting point of 89 to 90 °C.

`OCCc1nccn1CCCCc1ccc(OCc2coc(/C=C/c3ccc(F)cc3F)n2)cc1` [Compound B19, 2-[1-[4-[4-[[2-[(E)-2-(2,4-difluorophenyl)ethenyl]-1,3-oxazol-4-yl]methoxy]phenyl]butyl]-1H-imidazol-2-yl]-1-ethanol] came in with a melting point of 93 to 95 °C.

`FC(F)(F)c1ccc(/C=C/c2nc(COc3cccc(CCCn4ccnn4)c3)co2)cc1` [Compound B6, 1-(3-{3-[(2-{(E)-2-[4-(trifluoromethyl)phenyl]ethenyl}-1,3-oxazol-4-yl)methoxy]phenyl}propyl)-1H-1,2,3-triazole] came in with a melting point of 115 to 116 °C.

The compound `OCC(O)Cc1nccn1CCCCc1ccc(OCc2coc(/C=C/c3c(F)cccc3F)n2)cc1` (stereo not drawn) [Compound B28, 3-[1-[4-[4-[[2-[(E)-2-(2,6-difluorophenyl)ethenyl]-1,3-oxazol-4-yl]methoxy]phenyl]butyl]-1H-imidazol-2-yl]-1,2-propanediol] yielded a melting point of 123 to 125 °C.

`OCCc1nccn1CCCc1ccc(OCc2coc(/C=C/c3ccc(F)cc3F)n2)cc1` [Compound B20, 2-[1-[3-[4-[[2-[(E)-2-(2,4-difluorophenyl)ethenyl]-1,3-oxazol-4-yl]methoxy]phenyl]propyl]-1H-imidazol-2-yl]-1-ethanol] had a melting point of 94 to 96 °C.

In turn, `OCC(O)Cc1nccn1CCCCc1ccc(OCc2coc(/C=C/c3ccc(F)cc3F)n2)cc1` (stereo not drawn) [Compound B26, 3-(1-{4-[4-({2-[(E)-2-(2,4-difluorophenyl)ethenyl]-1,3-oxazol-4-yl}methoxy)phenyl]butyl}-1H-imidazol-2-yl)-1,2-propanediol] came in with a melting point of 126 to 128 °C.

Turning to `OCCc1nccn1CCCCc1ccc(OCc2coc(/C=C/c3ccc(F)cc3)n2)cc1` [Compound B14, 2-(1-{4-[4-({2-[(E)-2-(4-fluorophenyl)ethenyl]-1,3-oxazol-4-yl}methoxy)phenyl]butyl)-1H-imidazol-2-yl)-1-ethanol], the melting point was 130 to 132 °C.

`Fc1ccc(/C=C/c2nc(COc3ccc(CCCCn4ccnn4)cc3)co2)c(F)c1` [Compound B7, 1-{4-[4-({2-[(E)-2-(2,4-difluorophenyl)ethenyl]-1,3-oxazol-4-yl}methoxy)phenyl]butyl}-1H-1,2,3-triazole] had a melting point of 115 to 117 °C.

`Cc1cccc(/C=C/c2nc(COc3ccc(CCCCn4ccnc4CCO)cc3)co2)c1` [Compound B11, 2-[1-[4-[4-[[2-[(E)-2-(3-methylphenyl)ethenyl]-1,3-oxazol-4-yl]methoxy]phenyl]butyl]-1H-imidazol-2-yl]-1-ethanol] gave a melting point of 109 to 111 °C.

On to `CCc1ccc(/C=C/c2nc(COc3ccc(CCCCn4ccnc4CCO)cc3)co2)cc1` [Compound B13, 2-[1-[4-[4-[[2-[(E)-2-(4-ethylphenyl)ethenyl]-1,3-oxazol-4-yl]methoxy]phenyl]butyl]-1H-imidazol-2-yl]-1-ethanol], for which the melting point was in the range of 94 to 95 °C.
